The structures appear in SMILES notation.

Consider `*C(=O)Oc1ccc(-c2ccc(OC(=O)c3ccc4c(c3)C(=O)N(c3ccc(Oc5ccc(N6C(=O)c7ccc(*)cc7C6=O)cc5)cc3)C4=O)cc2)cc1` (repeat unit), for which the glass transition temperature is 232.00 °C. Regarding `*CCCCCCCN1C(=O)c2ccc(C(=O)Oc3ccc(-c4ccc(OC(=O)c5ccc6c(c5)C(=O)N(*)C6=O)cc4)cc3)cc2C1=O` (repeat unit), the glass transition temperature was 117.00 °C. To `*CCCCCCN1C(=O)c2ccc(C(=O)Oc3ccc(-c4ccc(OC(=O)c5ccc6c(c5)C(=O)N(*)C6=O)cc4)cc3)cc2C1=O` (repeat unit) belongs 133.00 °C; to `*CCCCCN1C(=O)c2ccc(C(=O)Oc3ccc(-c4ccc(OC(=O)c5ccc6c(c5)C(=O)N(*)C6=O)cc4)cc3)cc2C1=O` (repeat unit), 147.00 °C. `*CCCCN1C(=O)c2ccc(C(=O)Oc3ccc(-c4ccc(OC(=O)c5ccc6c(c5)C(=O)N(*)C6=O)cc4)cc3)cc2C1=O` (repeat unit) showed a glass transition temperature of 126.00 °C. To `*CCCOCCCCOCCCN1C(=O)c2ccc(C(=O)Oc3ccc(-c4ccc(OC(=O)c5ccc6c(c5)C(=O)N(*)C6=O)cc4)cc3)cc2C1=O` (repeat unit) belongs 70.00 °C; to `*N/C(C#N)=C(\C#N)NC(=O)c1ccc(C(*)=O)cc1` (repeat unit), 232.00 °C; to `*OP(=O)(Oc1ccc(-c2ccc(*)cc2)cc1)OC1CCCCC1` (repeat unit), 116.00 °C.

Compound `*OP(=O)(Oc1ccc(C)cc1)Oc1c(C)cc(S(=O)(=O)c2cc(C)c(*)c(C)c2)cc1C` (repeat unit) returned a glass transition temperature of 128.00 °C. `*O[Si](C)(C)O[Si](C)(C)O[Si](C)(C)O[Si](C)(C)O[Si](C)(C)O[Si](C)(C)Oc1c(*)c2ccccc2c2ccccc12` (repeat unit): the glass transition temperature was -68.00 °C. To `*O[Si](C)(C)O[Si](C)(C)O[Si](C)(C)O[Si](C)(C)Oc1c(*)c2ccccc2c2ccccc12` (repeat unit) belongs -35.00 °C. The same measure for `*Oc1c(Br)cc(S(=O)(=O)c2cc(Br)c(OC(*)=O)c(Br)c2)cc1Br` (repeat unit): 196.00 °C; for `*Oc1c(C)cc(*)cc1C(C)CCCC` (repeat unit): 85.00 °C. In the case of `*Oc1c(C)cc(*)cc1C(C)CCCCC` (repeat unit), the glass transition temperature amounted to 60.00 °C. To `*Oc1c(C)cc(*)cc1C(C)CCCCCCCC` (repeat unit) belongs 20.00 °C. To `*Oc1c(Cl)cc(C(=C(Cl)Cl)c2cc(Cl)c(OC(*)=O)c(Cl)c2)cc1Cl` (repeat unit) belongs 250.00 °C; to `*Oc1c(Cl)cc(C2(c3cc(Cl)c(OC(*)=O)c(Cl)c3)CC3CC2C2CCCC32)cc1Cl` (repeat unit), 281.00 °C. To `*Oc1c(OC)cc(*)cc1OC` (repeat unit) belongs 174.10 °C; to `*Oc1cc(C(C)(C)C)c(Oc2ccc(C(=O)Nc3ccc(C(C)(C)c4ccc(NC(=O)c5ccc(*)cc5)cc4)cc3)cc2)cc1C(C)(C)C` (repeat unit), 254.00 °C. `*Oc1cc(C(C)(C)C)c(Oc2ccc(C(=O)c3ccc(*)cc3)cc2)cc1C(C)(C)C` (repeat unit) came in with a glass transition temperature of 206.00 °C. The same measure for `*Oc1ccc(-c2cc(-c3ccccc3)c(-c3ccc(OC(=O)c4ccc(C(*)=O)cc4-c4ccccc4)cc3)c(-c3ccccc3)c2-c2ccccc2)cc1` (repeat unit): 225.00 °C; for `*Oc1ccc(-c2ccc(/N=N/c3ccc(C(*)=O)cc3)cc2)cc1` (repeat unit): 147.00 °C. The same measure for `*Oc1ccc(-c2ccc(OC(=O)c3ccc(C(*)=O)cc3)cc2)cc1` (repeat unit): 267.00 °C; for `*Oc1ccc(-c2ccc(OC(=O)c3ccc(C(*)=O)cc3Sc3ccc4ccccc4c3)cc2)cc1` (repeat unit): 141.00 °C; for `*Oc1ccc(-c2ccc(OC(=O)c3cccc(C(*)=O)c3)cc2)cc1` (repeat unit): 185.50 °C. The same measure for `*Oc1ccc(/N=N/c2ccc(S(=O)(=O)c3ccc(/N=N/c4ccc(OC(=O)c5ccc(/N=N/c6ccc(C(*)=O)cc6)cc5)cc4)cc3[N+](=O)[O-])c([N+](=O)[O-])c2)cc1` (repeat unit): 150.00 °C; for `*Oc1ccc(C(=O)O)c(C(=O)Nc2ccc(NC(=O)c3cc(*)ccc3C(=O)O)cc2)c1` (repeat unit): 166.30 °C; for `*Oc1ccc(C(=O)OCCOCCOC(=O)c2ccc(OC(*)=O)cc2)cc1` (repeat unit): 51.00 °C. Consider `*Oc1ccc(C(c2ccc(OC(*)=O)cc2)(C(F)(F)F)C(F)(F)F)cc1` (repeat unit), for which the glass transition temperature was found to be 176.00 °C. To `*Oc1ccc(C(c2ccc(OC(*)=O)cc2)C(Cl)(Cl)Cl)cc1` (repeat unit) belongs 230.00 °C. The same measure for `*Oc1ccc(C(c2ccc(OC(*)=O)cc2)C(Cl)Cl)cc1` (repeat unit): 165.00 °C; for `*Oc1ccc(C(c2ccc(OC(=O)c3ccc(C(c4ccc(C(*)=O)cc4)(C(F)(F)F)C(F)(F)F)cc3)cc2)(C(F)(F)F)C(F)(F)F)cc1` (repeat unit): 135.00 °C; for `*Oc1ccc(C(c2ccc(OC(=O)c3ccccc3-c3ccccc3C(*)=O)cc2)(C(F)(F)F)C(F)(F)F)cc1` (repeat unit): 162.00 °C. The same measure for `*Oc1ccc(C(c2ccc(Oc3c(F)c(F)c(COC(c4cccc(C(OCc5c(F)c(F)c(*)c(F)c5F)(C(F)(F)F)C(F)(F)F)c4)(C(F)(F)F)C(F)(F)F)c(F)c3F)cc2)(C(F)(F)F)C(F)(F)F)cc1` (repeat unit): 113.00 °C; for `*Oc1ccc(C(c2ccccc2)(c2ccccc2)c2ccc(OC(=O)c3cccc(C(*)=O)c3)cc2)cc1` (repeat unit): 229.00 °C.

Consider `*Oc1ccc(Oc2c(F)c(F)c(-c3c(F)c(F)c(*)c(F)c3F)c(F)c2F)cc1S(=O)(=O)O` (repeat unit), for which the glass transition temperature came to 120.00 °C. In the case of `*Oc1ccc(Oc2ccc(C(=O)c3ccc(*)c(S(=O)(=O)O)c3)cc2S(=O)(=O)O)cc1` (repeat unit), the glass transition temperature came out at 220.00 °C. To `*Oc1ccc(Oc2ccc(C(=O)c3ccc(*)cc3)cc2)cc1-c1cc(C)cc(C)c1` (repeat unit) belongs 162.00 °C. `*Oc1ccc(Oc2ccc(C(=O)c3ccc(*)cc3)cc2)cc1-c1cccc(C(F)(F)F)c1` (repeat unit) registered a glass transition temperature of 134.00 °C. To `*Oc1ccc(Oc2ccc(C(=O)c3ccc(*)cc3)cc2)cc1S(=O)(=O)O` (repeat unit) belongs 225.00 °C; to `*Oc1ccc(Oc2ccc(C(=O)c3ccc(-c4ccc(C(=O)c5ccc(*)cc5)cc4)cc3)cc2)cc1-c1cccc(C)c1` (repeat unit), 170.00 °C; to `*Oc1ccc(Oc2ccc(C(=O)c3ccc(C(=O)c4ccc(*)cc4)cc3)cc2)cc1-c1cccc(C)c1` (repeat unit), 159.00 °C. The same measure for `*Oc1ccc(S(=O)(=O)c2ccc(Oc3ccc(C(c4ccc(*)cc4)(C(F)(F)F)C(F)(F)F)cc3)cc2[Si](C)(C)C)c([Si](C)(C)C)c1` (repeat unit): 172.00 °C; for `*c1ccc(Cc2ccc(N3C(=O)C(Cl)=C(Oc4ccc(C(c5ccc(OC6=C(Cl)C(=O)N(*)C6=O)cc5)(C(F)(F)F)C(F)(F)F)cc4)C3=O)cc2)cc1` (repeat unit): 189.00 °C. With `*c1ccc(Oc2cc3ccccc3cc2Oc2ccc(N3C(=O)c4ccc(Oc5cc6ccccc6cc5Oc5ccc6c(c5)C(=O)N(*)C6=O)cc4C3=O)cc2)cc1` (repeat unit), the glass transition temperature worked out at 222.00 °C.

The compound `*c1ccc(Oc2ccc(-c3ccc(Oc4ccc(N5C(=O)c6ccc(Oc7ccc(-c8ccc(Oc9ccc%10c(c9)C(=O)N(*)C%10=O)cc8)cc7)cc6C5=O)cc4)cc3)cc2)cc1` (repeat unit) returned a glass transition temperature of 220.00 °C. As for `*c1ccc(Oc2ccc(-c3ccc4nc(Oc5cc(-c6ccccc6)c6cc(*)ccc6n5)cc(-c5ccccc5)c4c3)cc2)cc1` (repeat unit), the glass transition temperature came to 268.50 °C.

Consider `*c1ccc(Oc2ccc(N3C(=O)c4ccc(Oc5cc6ccccc6cc5Oc5ccc6c(c5)C(=O)N(*)C6=O)cc4C3=O)cc2)cc1` (repeat unit), for which the glass transition temperature is 220.50 °C. In the case of `*c1ccc(Oc2ccc(N3C(=O)c4cccc(Oc5ccc(-c6ccc(Oc7cccc8c7C(=O)N(*)C8=O)cc6)cc5)c4C3=O)cc2)cc1` (repeat unit), the glass transition temperature worked out at 277.00 °C. The same measure for `*c1ccc(Oc2ccc(Oc3ccc(-n4c(=O)c5cc6c(=O)n(*)c(=O)c6cc5c4=O)cc3)cc2C(C)(C)C)cc1` (repeat unit): 314.00 °C.

For the compound `*c1ccc(Oc2ccc(Oc3ccc(-n4c(=O)c5cc6c(=O)n(*)c(=O)c6cc5c4=O)cc3)cc2C)cc1` (repeat unit), the glass transition temperature came out at 310.00 °C.

Compound `*c1ccc(Oc2ccc(Oc3ccc(N4C(=O)c5ccc(Oc6ccc(-c7ccc(Oc8ccc9c(c8)C(=O)N(*)C9=O)cc7)cc6)cc5C4=O)cc3)cc2)cc1` (repeat unit) returned a glass transition temperature of 222.00 °C. The same measure for `*c1ccc(Oc2ccc(Sc3ccc(Oc4ccc(N5C(=O)c6ccc(Oc7ccc(-c8ccc(Oc9ccc%10c(c9)C(=O)N(*)C%10=O)cc8)cc7)cc6C5=O)cc4)cc3)cc2)cc1` (repeat unit): 206.00 °C; for `*c1ccc(Oc2cccc(Oc3ccc(N4C(=O)c5cccc(Oc6ccc(-c7ccc(Oc8cccc9c8C(=O)N(*)C9=O)cc7)cc6)c5C4=O)cc3)c2)cc1` (repeat unit): 224.00 °C.

`*c1cccc(N2C(=O)c3ccc(Oc4cc5ccccc5cc4Oc4ccc5c(c4)C(=O)N(*)C5=O)cc3C2=O)c1` (repeat unit) had a glass transition temperature of 237.00 °C.

Regarding `*c1cccc(Oc2ccc(P(=O)(c3ccccc3)c3ccccc3)c(Oc3cccc(N4C(=O)c5ccc(Oc6ccc(-c7ccc(Oc8ccc9c(c8)C(=O)N(*)C9=O)cc7)cc6)cc5C4=O)c3)c2)c1` (repeat unit), the glass transition temperature amounted to 227.00 °C.

The values are drawn from the PolyMetriX glass transition set.
